Experimental data from patent publication US8106203B2, “Assay methods using chemiluminescent detection of peroxidase” (Lumigen, Inc., priority 2001, dated 2012).
One block for each compound: values may come before it.

What was measured:
[1] = target: T1, HRP (Armoracia rusticana, UniProt P00433); assay: Comparison of signal intensity (Example 17): maximum signal with HRP; type: biochemical, horseradish; conditions: 1 mM test compound (Formulation 1.0); 3.5×10^−16 moles of HRP
T1 sequence (P00433 31-338): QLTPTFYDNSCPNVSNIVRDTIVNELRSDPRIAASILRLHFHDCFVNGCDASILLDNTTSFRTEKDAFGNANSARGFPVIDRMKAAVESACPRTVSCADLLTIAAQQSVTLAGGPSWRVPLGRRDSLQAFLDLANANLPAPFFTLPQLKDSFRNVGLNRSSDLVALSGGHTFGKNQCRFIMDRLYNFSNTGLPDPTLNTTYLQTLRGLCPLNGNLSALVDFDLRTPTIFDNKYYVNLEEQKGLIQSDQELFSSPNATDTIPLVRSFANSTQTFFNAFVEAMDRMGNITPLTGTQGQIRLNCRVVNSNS
Procedure: (§1) The maximum signal produced by each of compounds 40-51 was compared by reacting a 100 μL aliquot of reagent compositions comprising 0.025 M tris buffer, pH 8, 2.5 mM urea peroxide, 4 mM p-hydroxycinnamic acid, 0.5 mM EDTA, 0.1% Tween 20, and either 1 mM, 0.3 mM, 0.15 mM or 0.05 mM of the test compound with 3.5×10^−16 moles of HRP. Each reagent reached maximum light intensity in 1-3 minutes.

[2] = target: T2, HRP-labeled antibody (Armoracia rusticana, UniProt P00433); assay: Western blot of β-galactosidase on nitrocellulose membrane with compound 46; type: biochemical; conditions: 1 mM compound 46, nitrocellulose, time points up to 120 min
T2 sequence (P00433 31-338): T1 sequence (P00433 31-338)
Procedure: A western blot assay of β-galactosidase as the test antigen was conducted according to the procedure described in U. K. Laemmli, Nature (London), 227, 680 (1970) using a PVDF membrane. β-Galactosidase standards in the range of 5000-5 pg. The detection reagent containing Compound 1 permitted detection to be performed in under 1 minute.
(§2) Western blot assays of β-galactosidase were conducted according to Example 13 but using nitrocellulose membrane and a detection reagent comprising 0.025 M tris buffer, pH 8.0, 2.5 mM urea peroxide, 4 mM p-hydroxycinnamic acid, 0.5 mM EDTA, 0.1% Tween 20, and 1 mM compound 46.

[3] = target: T1, HRP; assay: Stability of working solutions by solution assay; type: physicochemical, horseradish; set-up: key to Activity / Activity (Control): maximum chemiluminescence intensity (arbitrary light units); conditions: for Activity (Control): fresh reagent from components stored at 4° C.; for Activity: stored working solution
Procedure: Reagent stability of the working solutions of compound 53 and compound 46 was assessed by preparing the working solution by combining 50 μL aliquots of the two component solutions and storing the mixed solutions at 4° C. or room temperature. The working solution contained 0.025 M tris buffer, pH 8, 2.5 mM urea peroxide, 4 mm p-hydroxycinnamic acid, 0.5 mM EDTA, 0.1% Tween 20, and 0.05 mM of the substrate. Chemiluminescent assays were run with 3.5×10^−16 moles of HRP at 25° C. Maximum intensity results were compared to the values obtained with fresh reagent prepared from the individual components stored at 4° C. […] The composition containing compound 53 was unchanged after four months at 4° C., that containing compound 46 was unchanged after 9 months at 4° C.

[4] = target: T2, HRP-labeled antibody; assay: Stability of working solution by western blot assay; type: physicochemical; conditions: stored 1 year at 4° C.
Procedure: as §2
A further measure of the long term stability of a working solution containing compound 46 was provided by serial western blot assays over a 1 year period according to the procedure in example 18. FIG. 9 depicts the performance comparison in the western blot protocol described above using fresh vs. 1 year old working solutions.

[5] = tested on: peroxidase; conditions: reacted with HRP; disclosed in U.S. Pat. No. 5,922,558; cited from earlier work
[6] = target: T1, HRP; assay: Comparison of signal intensity (Example 9): chemiluminescence on reaction of reagent with HRP; type: biochemical, horseradish; conditions: 5×10^−5 M compound, 0.01 M tris pH 8, 0.5 mM urea peroxide, 0.1 mM p-phenylphenol, 0.025% Tween 20; 3.5×10^−16 moles of HRP
Procedure: Reagent compositions comprising 0.01 M tris buffer, pH 8, 0.5 mM urea peroxide, 0.1 mM p-phenylphenol, […], 0.025% Tween 20, and 5×10^−5 M of each compound in the table below except the compound designated Ref. 1 were tested for production of chemiluminescence by reacting a 100 μL aliquot with 3.5×10^−16 moles of HRP. The reagent formulation for Ref. 1 comprised 0.05 M tris buffer, pH 8.6, 0.25 mM urea peroxide, 0.05 mM p-phenylphenol, 0.5 mM EDTA, 0.0125% Tween 20, and 3.3×10^−4 M Ref. 1. For comparison, data are provided for reference compounds 1 and 2.

[7] = target: T1, HRP; assay: Comparison of signal intensity (Example 10): maximum signal with HRP; type: biochemical, horseradish; conditions: 3×10^−4 M compound, 0.025 M tris pH 8, 2.5 mM urea peroxide, 4 mM p-hydroxycinnamic acid; 3.5×10^−16 moles of HRP
Procedure: as §1, with “14, and 27-29” for “40-51”, “3×10^−4 M” for “either 1 mM, 0.3 mM, 0.15 mM or 0.05 mM”, “about 1 minute.” for “1-3 minutes.”

[8] = target: T1, HRP; assay: Chemiluminescent detection of HRP with compound 27; type: biochemical, horseradish; conditions: 3×10^−4 M compound 27, pH 8.0, p-hydroxycinnamic acid
Procedure: (§3) Reagent compositions comprising 0.025 M tris buffer, pH 8.0, 2.5 mM urea peroxide, 4 mM p-hydroxycinnamic acid, 0.5 mM EDTA, 0.1% Tween 20 and 3×10^−4 M compound 27 were tested for production of chemiluminescence by reacting triplicate 100 μL aliquots with 10 μL of HRP in the range 1.4×10^−16 to 1.4×10^−20 moles. Light production ensued upon mixing and reached maximum intensity in about 1 min. The relation between chemiluminescence intensity at 1.5 min and amount of enzyme is depicted in FIG. 2 along with the results for Ref. compound 1 at 15 min as described above.

[9] = target: T1, HRP; assay: Chemiluminescence time profile (Example 12); type: biochemical, horseradish; conditions: 3×10^−4 M compound 27, 3.5×10^−16 moles of HRP; compared with reagents of Example 11
Procedure: Reagent compositions comprising 0.025 M tris buffer, pH 8.0, 2.5 mM urea peroxide, 4 mM p-hydroxy-cinnamic acid, 0.5 mM EDTA, 0.1% Tween 20, and 3×10^−4 M compound 27 were tested for production of chemiluminescence by reacting a 100 μL aliquot with 3.5×10^−16 moles of HRP.

[10] = target: T1, HRP; assay: Chemiluminescent detection of HRP with compound 14; type: biochemical, horseradish; conditions: 3×10^−4 M compound 14, pH 8.0, p-hydroxycinnamic acid
Procedure: as §3, with “14” for “27”, “intensity” for “intensity at 1.5 min”, “1. For comparison,” for “2 along with”, “relationship between S-B and amount of HRP is also shown” for “results”, “reference” for “Ref.”, “having the formula:” for “at 15 min as described above.”
The results for the reference compound were measured 15 minutes after addition of 10 μL of solutions of HRP containing between 1.4×10^−15 and 1.4×10^−19 moles of enzyme to 100 μL of the reagent comprising 0.055 M tris buffer, pH 8.6, 0.25 mM urea peroxide, 0.05 mM p-phenylphenol, 0.5 mM EDTA, 0.0125% Tween 20 and 3.3×10^−4 M of Ref 1.

SMILES: O=S(=O)([O-])CCCOC1CSC(=C2c3ccccc3N(c3ccccc3)c3ccccc32)SC1.[Na+] (stereo not shown) [Compound 46]
Signal/Background [1]: 13000
detection of β-gal [2]: excellent sensitivity
% Rel. Activity (Control) ([3]; 2 months): 101.6%
% Rel. Activity (Control) ([3]; 3.5 months): 100.2%
% Rel. Activity (Control) ([3]; 4 months): 100.0%
% Rel. Activity (Control) ([3]; 6 months): 97.0%
% Rel. Activity (Control) ([3]; 9 months): 99.3%
working solution composition after storage ([3]; 9 months at 4° C.): unchanged
% Rel. Activity (Control) ([3]; 12 months): 90.9%
Activity (Control) ([3]; 2 months): 610
Activity (Control) ([3]; 3.5 months): 613
Activity (Control) ([3]; 4 months): 600
Activity (Control) ([3]; 6 months): 660
Activity (Control) ([3]; 9 months): 720
Activity (Control) ([3]; 12 months): 660
Activity ([3]; 2 months): 620
Activity ([3]; 3.5 months): 614
Activity ([3]; 4 months): 600
Activity ([3]; 6 months): 640
Activity ([3]; 9 months): 715
Activity ([3]; 12 months): 600
reagent performance on storage of working solution ([3]; up to three weeks at room temperature, 0.05 mM substrate): no deterioration of reagent performance
western blot performance, fresh vs. 1 year old working solution [4]: no diminution in blotting assay sensitivity

SMILES: COC(Sc1ccccc1)=C1c2ccccc2N(C)c2ccccc21 [drawing 18]
time to reach maximum chemiluminescence intensity [5]: 7 min

Signal/Background [6]: 533
Signal/Background [7]: 6933
time to reach maximum intensity [8]: about 1 min
SMILES: CSC(SCCCS(=O)(=O)[O-])=C1c2ccccc2N(Cc2ccccc2)c2ccccc21.[Na+] [Compound 27]
relative chemiluminescence time profile [9]: rapid generation of chemiluminescence and higher signal level

Signal/Background [6]: 688
Signal/Background [7]: 2491
time to reach maximum intensity [10]: about 1 min
SMILES: CSC(SCCCS(=O)(=O)[O-])=C1c2ccccc2N(c2ccccc2)c2ccccc21.[Na+] [Compound 14]
